# In paper PMC8743659, “C1632 suppresses the migration and proliferation of non‐small‐cell lung cancer cells involving LIN28 and FGFR1 pathway” (Journal of Cellular and Molecular Medicine, 2021):
# “Also recorded” adds a separate entry of the source. Like-named read-outs stand apart in the source and are kept apart here.
# Experiments:
# [1] = test system: A549 cells; test: Cell cycle distribution analysis (flow cytometry); assay type: cell-based, human; settings: A549, 15, 30 and 60 mg/L, 5 days, dose-dependent
# Description: (§1) Cells were cultured in the absence or presence of 15, 30, and 60 mg/L of C1632 or 0.01% DMSO for 5 days, trypsinized, washed, and stained with propidium iodide before cell cycle distribution was assessed on a flow cytometer (BD FACSCalibur, BD Biosciences).
# [2] = test system: A549R cells; test: Cell cycle distribution analysis (flow cytometry); assay type: cell-based, human; settings: A549R, 15, 30 and 60 mg/L, 5 days, dose-dependent
# Description: as §1
# [3] = Pharmacokinetic study, plasma by UHPLC-MS/MS; assay type: in vivo, Sprague-Dawley (SD) rats; settings: for MRT last: read-out: MRT(0-t); for half-life: read-out: t1/2z (converted)
# Description: (§2) Agilent 1290 UHPLC system and 6420 series Triple‐Quadrupole Tandem Mass Spectrometer (Agilent Corporation) maintained at 35°C with a ZORBAX Eclipse Plus C18 column (1.8 μm, 2.1 × 50 mm). The mobile phase was a gradient elution program consisting of solvent A with solvent B at a flow rate of 0.4 ml/min. Mobile phase A was 0.1% formic acid in water (v/v), and mobile phase B was acetonitrile. The optimal gradient elution program was as follows: 0–0.5 min, linear from 80% to 5% A; 0.5–1.5 min, 5% A; 1.5–1.6 min, linear from 5% to 80% A. The post‐time was 1.3 min for equilibration of the column and the total runtime was 1.8 min. The mass spectrometer was acquired in an ESI‐positive mode with multiple reaction monitoring (MRM). Instrument control and data acquisition were performed on the MassHunter Agilent Software (version B.07.00).
# (§3) The desolation gas (nitrogen) flow was set to 10 L/h: the capillary voltage: 4000 V; nebulizing gas and drying gas (both nitrogen): 45 psi and 350°C, respectively. The MRM mode with m/z 282.2→76.9 for C1632 and m/z 282.1→194.0 for IS was used for quantitative analysis.
# Male SD rats were starved for 12 h before the experiment. But, tap water was available ad libitum. C1632 was administered orally or intravenously at the dose of 20 mg/kg (p.o.), 4 mg/kg (i.v.), respectively (n = 6). Blood samples were collected into heparinized polythene tubes 0.083, 0.25, 0.5, 1, 2, 4, 6, 9, 12, 24 h after dosing. As followed, the samples were centrifuged at 14,954 g for 10 min. Add acetonitrile (400 µl) and IS (20 µl) into collected plasma samples (100 µl). Thereafter, the samples were vortexed for 2 min, followed by centrifugation at 14,954 g for 10 min. Remove the supernatants to 1.5 ml tube and the sample is ready for detection by established UHPLC‐MS/MS assay. The injection volume is 6 µl. The pharmacokinetic parameters were determined using DAS software (Version 3.0).
# [4] = test system: A549 cells; test: Transwell migration and invasion assay; assay type: cell-based, human; settings: A549, pretreated 5 days, 24 h
# Description: (§4) Transwell assay was carried out according to the manufacturer's instructions provided by Transwell Kit (Corning Costar). Briefly, cells were pretreated with indicated concentrations of C1632 for 5 days, then harvested and re‐seeded into insert (transwell permeable support) containing 100 μl serum‐free DMEM medium. The insert was placed into 24‐well plate containing 600 μl of DMEM medium extra added with 10% FBS. 24 h later, cells on the upper surface of the insert were removed with cotton‐tipped swabs. And cells on backside surface of the insert were fixed with 10% formalin, then stained with crystal violet. The insert was washed three times with ddH2O before it is subjected to Nikon Ti microscope observation. Additionally, these inserts were dissolved in 500 μl acetic acid (33%) separately, and the absorbance at 560 nm was detected by the spectrophotometer (DTX880, Beckman Coulter).
# [5] = test system: A549R cells; test: Transwell migration and invasion assay; assay type: cell-based, human; settings: pretreated 5 days, 24 h
# Description: as §4
# [6] = Tissue distribution study; assay type: in vivo, mice; settings: mouse, 20 mg/kg
# Description: as §2, §3
# Twenty‐four mice were randomly divided into four groups (six mice for each group, one group for each time point) and received 20 mg/kg […] of C1632 by oral administration. The mice were euthanized by decapitation at 0 (blank group), 0.25, 2 and 6 h after C1632 was given. Tissues were collected and washed with normal saline, then homogenized and subjected to sample preparation. Subsequently, the concentration of C1632 was determined by UHPLC‐MS/MS.
# [7] = test system: A549 cells; test: Annexin V/PI apoptosis assay; assay type: cell-based, human; settings: A549, 15, 30 or 60 mg/L, 5 days
# Description: (§5) Cells were seeded in 6 cm^2 dish with a density of 3.0 × 10^5 cells per dish and treated with C1632 with final concentration of 15, 30, and 60 mg/L or 0.01% DMSO for 5 days. Then the assay was performed following the protocol provided by the Annexin V/PI Apoptosis Kit (Sigma) and was assessed on a flow cytometer (BD FACSCalibur, BD Biosciences).
# [8] = test system: A549R cells; test: Annexin V/PI apoptosis assay; assay type: cell-based, human; settings: A549R, 15, 30 or 60 mg/L, 5 days
# Description: as §5
# [9] = test system: A549 cells; test: Scratch-wound healing assay; assay type: cell-based, human; settings: A549, 60 mg/L
# Description: (§6) The cells scratch‐wound assay was performed as previous reported.[38] The cells were seeded in a 6‐well plate and then cultured in DMEM medium containing indicated concentration of C1632 or 0.01% DMSO for 5 days. A denuded area was created across the diameter of dish by a yellow tip as the cell density up to 95%. Then cells were maintained in a serum‐free medium throughout the test. Phase‐contrast images were taken at the indicate time by Nikon Ti microscope and analysed with Axiovision Rel.4.8 software.
# [10] = test system: A549R cells; test: Scratch-wound healing assay; assay type: cell-based, human; settings: 60 mg/L, after 72 h, control 97%
# Description: as §6
# [11] = male, Sprague-Dawley, iv, rat plasma, i.v. 4 mg/kg
# [12] = male, Sprague-Dawley, po, rat plasma, p.o. 20 mg/kg
smiles,measurement,setting,value
CC(=O)N(C)c1cccc(-c2ccc3nnc(C)n3n2)c1 [C1632],cell cycle distribution,[1],arrested A549 and A549R cells at the G0/G1 phase
same,cell cycle distribution,[2],arrested A549 and A549R cells at the G0/G1 phase
same,AUC(0-t),[3]; [11],4090 ± 1630 ng·h/mL
same,Cmax,[3]; [11],2070 ± 338 ng/mL
same,Tmax,[3]; [11],0.53 ± 0.74 h
same,MRT last,[3]; [11],1.57 ± 0.74 h
same,half-life,[3]; [11],1.14 ± 0.52 h
same,AUC(0-t),[3]; [12],9100 ± 3830 ng·h/mL
same,Cmax,[3]; [12],4240 ± 2680 ng/mL
same,Tmax,[3]; [12],1.04 ± 0.78 h
same,CL/F,"[3]; male, Sprague-Dawley, po, rat plasma, p.o. 20 mg/kg, read-out: CLz/F (converted)",46.2 mL/min/kg
same,MRT last,[3]; [12],1.88 ± 0.42 h
same,Vd/F,"[3]; male, Sprague-Dawley, po, rat plasma, p.o. 20 mg/kg, read-out: Vz/F",4.54 ± 4.68 L/kg
same,half-life,[3]; [12],1.05 ± 0.6 h
same,bioavailability,"[3]; male, Sprague-Dawley, rat, plasma, oral, 20 mg/kg, rats, p.o. 20 mg/kg vs i.v. 4 mg/kg, read-out: F (bioavailability)",44.5%
same,time of second peak of the plasma concentration-time curve,"[3]; oral administration group, 20 mg/kg",1 h
same,CLz/F,"[3]; rat plasma, i.v. 4 mg/kg",18.8 ± 8.5 mL/min/kg
same,Vz/F,"[3]; rat plasma, i.v. 4 mg/kg",2.05 ± 1.66 L/kg
same,Transwell migration compared with untreated cells,[4],decreased migration
same,Transwell migration compared with untreated cells,[5],decreased migration
same,level of C1632 in the brain,[6],remained low
same,tissues with the highest level of C1632,"[6]; 0.25 h, followed by kidney, heart and spleen",highest in the lung and liver
same,Tmax,"[6]; tissues (major organs), homogenized, oral administration, sampled at 0.25, 2 and 6 h, read-out: time of peak concentration in major organs",0.25 h
same,apoptosis,[7],induces apoptosis
same,apoptosis,[8],limited effects; also recorded: did not significantly increase
same,migration rate,[9],significant decrease
same,scratch covered by migrated cells,[10],60%
